Consider one compound from patent US20240083933A1, “DISACCHARIDES FOR TREATING BONE DISEASES” (UNIVERSITE DE PICARDIE JULES VERNE, priority 2020, published 2024).

SMILES strings stand for the structures.

The nature of series [1]: Acetate migration DP2/DP2′ in solution (stability). The following applies: in methanol. The series is classed as physicochemical. The protocol:
The compound DP2′ was extracted from the DP2-DP2′ mixture which is formed when the compound DP2 is dissolved in water. The compound DP2′ has been separated by preparative HPLC chromatography with water as elution solvent.
The inventors have observed that when the compound DP2′ was in water, the delocalization of the acetate group was also present, but with very slow kinetics compared to the DP2→DP2′ reaction. Thus, a solution of DP2′ in water which is left to rest contains, after 44 days, 10 to 15% of DP2. The DP2′ therefore remains alone in the water for a given duration which is quite long. It is therefore possible to test the biological effect of DP2′ in solution in water.
Similarly, the inventors have observed that the kinetics of the DP2→DP2′ reaction is such that it is also possible to test the biological activity of the compound DP2 alone after extraction of the formed compound DP2′. Thus, the two compounds DP2 and DP2′ can coexist or not in water for a given duration.
In methanol, for example, the compound DP2 is therefore alone.
There is about ⅔ of DP2R2 for ⅓ of DP2′. The compound DP2′ comes from a migration of the acetate group (R2) on the 30H position. The compound DP2′ could be isolated and synthesized as previously indicated. […]

Series [2] concerns HOb cells. Briefly: Alkaline phosphatase (ALP) enzymatic activity assay, HOb. The series is classed as cell-based, human. As to conditions: 7 days post-treatment, 30 μM. An excerpt: (§1) ALP is an enzyme synthesized by osteoblasts. It hydrolyses phosphoric esters which inhibit the mineralization by releasing a hydroxyl group and a phosphate. The osteoblasts produce matrix vesicles, reservoirs of alkaline phosphatases and ions, which, when released into the extracellular medium, would initiate the mineralization of the osteoid tissue by promoting the local concentrations of calcium ions and phosphates. Cells have been seeded in 6-well plates at 63700 cells/well for MC3T3-E1 and at 182000 cells/well for HOb.
(§2) After the PBS rinses, 50 μl of ALP Assay Buffer were added to the wells, the bottom of the wells was scraped and then the 50 μl were taken. A centrifugation for 3 minutes at 13000 G was carried out to remove the insoluble material. In a 96-well plate, 10 μl of each sample to be tested are placed with 70 μl of the ALP Assay buffer and 50 μl of the 5 mM pNPP solution. In parallel, the calibration range was prepared by placing, in the same 96-well plate. The reaction was incubated for 60 min at 25° C., shielded from light. The reaction was stopped by adding 20 μl of the Stop Solution. The optical density was measured at 405 nm.
(§3) After the ALP enzymatic activity assay, a protein assay was performed in order to normalize the results of the ALP assay depending on the number of proteins. […] The optical density was measured at 565 nm to determine the amount of proteins.

The subject of another series is MC3T3-E1 cells. Briefly: Alkaline phosphatase (ALP) enzymatic activity assay, MC3T3-E1. The following applies: MC3T3-E1, 13 days post-treatment. It counts as cell-based, mouse.
From the text: as §1, §2, §3

For series [3], the system named is HOb cells. Briefly: Cytotoxicity, WST-1 test. It counts as cell-based, human. As to conditions: 30 μM, culture or mineralizing medium, D2, D4, D7, D14. The protocol:
The toxicity of DP2 has also been studied by another cell viability test: WST-1 (a tetrazolium salt). The HOb cells were seeded in 48-well plates (10,000 cells per well), two days later, the cells were treated with DP2 30 μM and the WST-1 test was carried out on D2, D4, D7 and D14 post-treatment.
At the end of the treatment, 100 μl of the diluted WST-1 solution (Roche Diagnostics) was added to each well and the plate is incubated at 37° C. with 5% CO2 for 1 h. The cell proliferation induces an increase in the activity of mitochondrial dehydrogenases, which cleaves the tetrazolium salt into formazan. The amount of formazan dye was quantified by measuring the absorbance of dye at 450 nm (Envision, PerkinElmer). The results are expressed as percentage of viability in comparison to the untreated control condition.
Before determining whether our molecule alters the survival of osteoblastic cells, its cytotoxicity was tested on the HOb cells by the MTT and WST-1 tests. The cells were treated with DP2 at 30 μM with the culture medium (Ctrl) or the mineralizing medium (Min) for 2, 4, 7 and 14 days (D).
In general terms: Tetrazolium assays rely on reduction of a dye to a coloured formazan, in cell work by metabolically active cells.

Regarding `CCCO[C@H]1OC(CO)[C@@H](O[C@@H]2OC(CO)[C@@H](O)C(O)C2NC(C)=O)C(O)C1OC(C)=O` (stereo partly drawn) [DP2, n-propyl, 2-O-acetyl-α-D-Glucopyranoside, 4-O-(2-acetamido-2-deoxy-β-D-glucopyranosyl)], in series [1], the “delocalization of the acetate group” value is listed as “no delocalization of the acetate group has been observed”. Also, the “ALP enzymatic activity relative to the mineralized medium alone (100%)” value with HOb cells [2] (listed as DP2R0) is 210.494±14.979%; in the series with HOb cells [2] (listed as DP2R2), 149.749%; in the series on MC3T3-E1 cells (15 μM), 118.907±10.466%; in the series on MC3T3-E1 cells (printed 15 μM (second mention)) it was 148.833±15.761%. Also, the “cell viability, WST-1 test” value in the series with HOb cells [3] is reported as “no significant difference”.
